Assay results from patent US20230109717A1 (GAIA BioMedicine Inc., priority 2020, published 2023).

Key:
highly active NK cells [1] = assay: Viable cell count and recovery rate of highly active NK cells after thawing, based on cell number at freezing; set-up: species or system human
Experimental: After the thawing, all the dilution and incubation operations were performed on a low-absorption 6-well plate.
The cells of the groups diluted in the media were incubated overnight at 37° C. under 5% CO2, and then the numbers of viable cells were counted. The experimental conditions are summarized below.
The NK cells obtained by the collection method 1 were suspended in PBS, and incubated at room temperature for 1 hour. The NK cells obtained by the collection method 2 were suspended in (1) the KBM501 medium, (2) KBM501 medium containing 30 μM 4-phenylbutyric acid, (3) KBM501 medium containing 30 μM tauroursodeoxycholic acid dihydrate (TUDCA, Tokyo Kasei Kogyo, T1567), and (4) KBM501 medium containing 30 μM 4-phenylbutyric acid and 30 μM TUDCA, and incubated at 37° C. for 2 hours under 5% CO2. […] After 1 hour, the cells were gently suspended, and number of viable cells was counted. After another 5-fold dilution in the KBM501 medium and incubation at 37° C. for 2 hours under 5% CO2, number of viable cells was counted, and the recovery rate based on the number of cells at the time of freezing was calculated.
After 1 and 3 hours, the cells were gently suspended, and viable cells were counted. In addition, after 1 hour, the cells were diluted 5-fold in the KBM501 medium, and incubated at 37° C. for 2 hours under 5% CO2, and viable cell were counted. Recovery rate of viable cells after the thawing based on the cell number at the time of freezing was calculated using the number of viable cells at each time point.
After 1 and 3 hours, the cells were gently suspended, and viable cells were counted. In addition, after 1 hour, the cells were diluted 5-fold in the KBM501 medium, and incubated at 37° C. for 2 hours under 5% CO2, and viable cell were counted. Recovery rate of viable cells after the thawing based on the cell number at the time of freezing was calculated on the basis of the number of viable cells at each time point after the thawing.

highly active NK cells [2] = assay: Viability of freeze-thawed highly active NK cells (7-AAD staining, flow cytometry, FlowJo); conditions: collect. method 2
Experimental: The highly activated NK cells (1×10^5 cells/well) thawed under each condition were centrifuged on a 96-well plate (IWAKI, 4870-800SP), the supernatant was removed, and then a 7-amino-actinomycin D (7-AAD) solution diluted with PBS (Beckman Coulter, A 07704) was added to the cells to suspend them, and the suspension was incubated at room temperature (room temperature means 15 to 25° C., the same shall apply in the following experiments) for 20 minutes. The stained cells were measured by using a flow cytometer (BD LSR Fortessa, BD Biosciences).
The NK cells frozen for 48 hours or longer were thawed in a water bath at 37° C., and 1×10^5 cells were dispensed on a 96-well plate (IWAKI) immediately after the thawing. […] The cells dispensed immediately after thawing were centrifuged immediately after they were dispensed, and the cells of the other four groups were centrifuged after incubation of 3 hours, measurement was performed by the method for staining with 7-AAD described above, and the results were analyzed with the FlowJo software (FLOWJO, LLC) to calculate viable cell rates.
The NK cells frozen for 48 hours or longer were thawed at 37° C. in a water bath, and then 1×10^5 of the cells were dispensed on a 96-well plate immediately after the thawing. […] The cells dispensed immediately after thawing were centrifuged immediately after they were dispensed, and the cells of the other four groups were centrifuged after incubation of 3 hours, measurement was performed by the method for staining with 7-AAD described above, and the results were analyzed with the FlowJo software (FLOWJO, LLC) to calculate viable cell rates.
Then, measurement was performed by the method for staining with 7-AAD described above, and the results were analyzed with the FlowJo software. […] Then, measurement was performed by the method for staining with 7-AAD described above, and the results were analyzed with the FlowJo software. (8-3) The experiment was performed in the same manner as in (8-1), but (1) PBS, (2) Plasma-Lyte A, (3) Plasma-Lyte A containing 27.7 mEq/L of lactic acid (Nacalai Tesque, 20006-62), (4) Plasma-Lyte A containing 48.84 mg/L of MgSO4.7H2O (Nacalai Tesque, 21002-85), (5) Lactoringer, (6) Veen-F (Fuso Pharma), (7) Solita-T1 (AY Pharmaceuticals), (8) Solita-T3 (AY Pharmaceuticals), (9) 5% glucose injection solution (Terumo), and (10) RPMI medium were used as the solvents for dilution of thawed cells, and the cells were incubated at 37° C. for 3 hours. In the case of (3), lactic acid was added at the same concentration as the lactate concentration in Lactoringer, and neutrality of the solution was confirmed with litmus test paper. In the case of (4), MgSO4 was added at the same concentration as the MgSO4 concentration in HBSS. Measurement was then performed by the method for staining with 7-AAD described above, and the results were analyzed with the FlowJo software. (8-4) The experiment was performed in the same manner as in (8-2), but the cells were treated by using (1) PBS, (2) Plasma-Lyte A, (3) saline (OTSUKA NORMAL SALINE, Otsuka Pharmaceutical), (4) Bicanate (Otsuka Pharmaceutical), and (5) Solacet F (Terumo) as the solvents for dilution of thawed cells. Measurement was then performed by the method for staining with 7-AAD described above, and the results were analyzed with the FlowJo software. […] Immediately after completely thawed, the cells were diluted 10-fold in (1) Plasma-Lyte A, (2) saline, (3) RPMI 1640 medium, (4) Lactoringer, (5) 0.423 mM CaCl2 prepared in Plasma-Lyte A, and (6) 1.36 mM CaCl2, and left to stand at 37° C. for 3 hours. The CaCl2 concentration of (5) was the same as that in the RPMI 1640 medium, and the CaCl2 concentration of (6) was the same as that in Lactoringer. Measurement was then performed by the method for staining with 7-AAD described above, and the results were analyzed with the FlowJo software.

C[C@H](CCC(=O)NCCS(=O)(=O)O)[C@H]1CC[C@H]2[C@@H]3[C@@H](O)C[C@@H]4C[C@H](O)CC[C@]4(C)[C@H]3CC[C@]12C [TUDCA, tauroursodeoxycholic acid dihydrate]
A (“A” means 70% or higher): Viability (highly active NK cells [2]; Exmp. 6, pretreatment KBM + 10 μM TUDCA 2 h, thawing PlasmaLyte R.T. 1 h, then KBM 2 h) | Viability (highly active NK cells [2]; Exmp. 6, pretreatment KBM + 10 μM TUDCA 2 h, thawing PlasmaLyte R.T. 3 h) | Viability (highly active NK cells [2]; Exmp. 6, pretreatment KBM + 30 μM TUDCA 2 h, thawing PlasmaLyte R.T. 1 h, then KBM 2 h) | Viability (highly active NK cells [2]; Exmp. 6, pretreatment KBM + 30 μM TUDCA 2 h, thawing PlasmaLyte R.T. 3 h) | Viability (highly active NK cells [2]; Exmp. 6, pretreatment KBM + 90 μM TUDCA 2 h, thawing PlasmaLyte R.T. 1 h, then KBM 2 h) | Viability (highly active NK cells [2]; Exmp. 6, pretreatment KBM + 90 μM TUDCA 2 h, thawing PlasmaLyte R.T. 3 h) | Viability (highly active NK cells [2]; Exmp. 6, pretreatment KBM + 270 μM TUDCA 2 h, thawing PlasmaLyte R.T. 1 h, then KBM 2 h) | Viability (highly active NK cells [2]; Exmp. 6, pretreatment KBM + 270 μM TUDCA 2 h, thawing PlasmaLyte R.T. 3 h) | Viability (highly active NK cells [2]; Exmp. 6, pretreatment KBM + 810 μM TUDCA 2 h, thawing PlasmaLyte R.T. 1 h, then KBM 2 h) | Viability (highly active NK cells [2]; Exmp. 6, pretreatment KBM + 810 μM TUDCA 2 h, thawing PlasmaLyte R.T. 3 h) | Viability (highly active NK cells [2]; Exmp. 7, pretreatment KBM + 266 μM TUDCA 2 h, thawing PlasmaLyte + IL-2, R.T. 1 h) | Viability (highly active NK cells [2]; Exmp. 7, pretreatment KBM + 266 μM TUDCA 2 h, thawing PlasmaLyte + IL-2, R.T. 1 h, then KBM 2 h) | Viability (highly active NK cells [2]; Exmp. 7, pretreatment KBM + 266 μM TUDCA 2 h, thawing PlasmaLyte + IL-2, R.T. 3 h) | Viability (highly active NK cells [2]; Exmp. 7, pretreatment KBM + 266 μM TUDCA 2 h, thawing PlasmaLyte R.T. 1 h) | Viability (highly active NK cells [2]; Exmp. 7, pretreatment KBM + 266 μM TUDCA 2 h, thawing PlasmaLyte R.T. 1 h, then KBM 2 h) | Viability (highly active NK cells [2]; Exmp. 7, pretreatment KBM + 266 μM TUDCA 2 h, thawing PlasmaLyte R.T. 3 h) | Viability (highly active NK cells [2]; Exmp. 7, pretreatment KBM + 800 μM TUDCA 2 h, thawing PlasmaLyte + IL-2, R.T. 1 h) | Viability (highly active NK cells [2]; Exmp. 7, pretreatment KBM + 800 μM TUDCA 2 h, thawing PlasmaLyte + IL-2, R.T. 1 h, then KBM 2 h) | Viability (highly active NK cells [2]; Exmp. 7, pretreatment KBM + 800 μM TUDCA 2 h, thawing PlasmaLyte + IL-2, R.T. 3 h) | Viability (highly active NK cells [2]; Exmp. 7, pretreatment KBM + 800 μM TUDCA 2 h, thawing PlasmaLyte R.T. 1 h) | Viability (highly active NK cells [2]; Exmp. 7, pretreatment KBM + 800 μM TUDCA 2 h, thawing PlasmaLyte R.T. 1 h, then KBM 2 h) | Viability (highly active NK cells [2]; Exmp. 7, pretreatment KBM + 800 μM TUDCA 2 h, thawing PlasmaLyte R.T. 3 h) | Viability (highly active NK cells [2]; Exmp. 7, pretreatment KBM + 2400 μM TUDCA 2 h, thawing PlasmaLyte + IL-2, R.T. 1 h) | Viability (highly active NK cells [2]; Exmp. 7, pretreatment KBM + 2400 μM TUDCA 2 h, thawing PlasmaLyte + IL-2, R.T. 1 h, then KBM 2 h) | Viability (highly active NK cells [2]; Exmp. 7, pretreatment KBM + 2400 μM TUDCA 2 h, thawing PlasmaLyte + IL-2, R.T. 3 h) | Viability (highly active NK cells [2]; Exmp. 7, pretreatment KBM + 2400 μM TUDCA 2 h, thawing PlasmaLyte R.T. 1 h) | Viability (highly active NK cells [2]; Exmp. 7, pretreatment KBM + 2400 μM TUDCA 2 h, thawing PlasmaLyte R.T. 1 h, then KBM 2 h) | Viability (highly active NK cells [2]; Exmp. 7, pretreatment KBM + 2400 μM TUDCA 2 h, thawing PlasmaLyte R.T. 3 h)
improved: Recovery rate after the thawing (highly active NK cells [1]; pretreatment 2 hours with KBM501 medium supplemented with 30 μM additive before freezing, Example 5) | Recovery rate after thawing (highly active NK cells [1]; pretreatment with KBM501 medium supplemented at various concentrations (266 to 2400 μM), Example 7) | Recovery rate after the thawing (highly active NK cells [1]; pretreatment with KBM501 medium supplemented with various concentrations (10 to 810 μM), Example 6)
higher recovery rate: Recovery rate (highly active NK cells [1]; added before freezing at 800 μM (preferable between 2,400 μM and 267 μM))
